{
  "source": "patent US20260325481A1",
  "about": "“THERAPY SELECTION AND TREATMENT OF NEURODEGENERATIVE DISORDERS” (Anavex Life Sciences Corp., priority 2022, published 2026)",
  "system": "gene clusters differentially expressed in PDD patients",
  "experiment": "RNAseq whole blood transcriptomics, gene clusters overall",
  "parameters": "species or system human",
  "protocol": "In order to gain insights into ANAVEX 2-73 response pathways, during the Phase 2 study, patients' DNA and RNA sequencing were analyzed. Transcriptomic samples of 65 patients enrolled in either High Dose or Mid Dose arms were collected at baseline and at the end of treatment (Week 14). The expression of 14,150 genes was measured. No transformation was applied to the TPM values. Values associated with a with RIN s 4.0 were discarded. The actual dose of ANAVEX 2-73 (blarcamesine) that was given to each patient during the trial was assessed and integrated into the database. To characterize the gene dysregulations, a pathway database was built using an aggregation of public databases including KEGG, Panther, Allen, Brain Atlas, Gene Ontology, and Reactome.\nThe genes were clustered together using WGCNA, starting from their correlation of TPM expression values across samples. Seventeen clusters with size ranging from 13 to 11,190 genes were obtained through this gene clusterisation. The TPM expression values of genes in clusters were then aggregated in a single “eigengene” for each cluster. This eigengene served as a representant of the overall dysregulation of the cluster. […] For each cluster, the contrast ActualDose, i.e. treated vs placebo were evaluated across all timepoints. […] The ratio between cluster size and number of pathways was calculated, and top 2 clusters were retained for further Analysis. […] Known interactions between the genes of the cluster were assessed using STRING database with the parameters of Edge score >0.150, and no text mining edges. […]\nWhole Blood Transcriptomics Analysis (RNAseq) of patients with Parkinson's disease with dementia (PDD) was performed for the ANAVEX®2-73-PDD-001 study (FIG. 1) at two timepoints: Baseline and Week 14 (end of trial). All available RNA samples with […] (RNA integrity number, using 130 samples) were analyzed. The expression of 14,150 genes at these two timepoints were analyzed from both placebo and ANAVEX® 2-73 treated patients. […]",
  "data": [
    {"compound": "CN(C)CC1CCOC1(c1ccccc1)c1ccccc1.Cl", "note": "(stereo not drawn) [ANAVEX2-73, tetrahydro-N,N-dimethyl-2,2-diphenyl-3-furanmethanamine hydrochloride]", "values": [
      {"measurement": "Number of clusters with significant association between treatment and estimated marginal mean expression", "setting": "Dunnett's test, linear mixed-effect model", "value": 6, "unit": "clusters"},
      {"measurement": "Dysregulations of Clusters 1 and 2", "setting": "highest dose", "value": "significantly linked to the highest dose"},
      {"measurement": "Regulation of both identified clusters", "setting": "treated patients compared to placebo, 14 weeks", "value": "up-regulated"}
    ]}
  ]
}
